According to PubChem BioAssay (NCI):
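Compound exposure: 48 hours, 5 concentrations, 96-well plates. TGI: concentration producing complete growth inhibition.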

Key:
Test in all cases: NCI-60 cell line screen, 48 h
RXF 393 renal = test system: RXF 393 renal
M14 melanoma = test system: M14 melanoma
OVCAR-8 ovarian = test system: OVCAR-8 ovarian
NCI-H23 lung = test system: NCI-H23 lung
HOP-92 NSCLC = test system: HOP-92 NSCLC
EKVX NSCLC = test system: EKVX NSCLC
LOX IMVI melanoma = test system: LOX IMVI melanoma
SK-OV-3 ovarian = test system: SK-OV-3 ovarian
HCT-15 colon = test system: HCT-15 colon
SNB-19 CNS = test system: SNB-19 CNS

SMILES	TGI (RXF 393 renal) [µM]	TGI (M14 melanoma) [µM]	TGI (OVCAR-8 ovarian) [µM]	TGI (NCI-H23 lung) [µM]	TGI (HOP-92 NSCLC) [µM]	TGI (EKVX NSCLC) [µM]	TGI (LOX IMVI melanoma) [µM]	TGI (SK-OV-3 ovarian) [µM]	TGI (HCT-15 colon) [µM]	TGI (SNB-19 CNS) [µM]
C=C(C(=O)OCC)C(=O)OCC	> 100	> 100	> 100	> 100	> 100	> 100	> 100	> 100	> 100	> 100
C=C1C(=O)CC2C1CC(=O)/C(C)=C/CCC(C)(O)C2O (stereo not drawn)	11.6	> 31.2	11.6	20.6	15.8	34.3	11.9	49.8	11.5	> 67.1
COC(=O)C(Cc1ccc2c(c1)CCC2)Cc1ccc2c(c1)CCC2	> 100	> 100	> 100	> 100	> 100	> 100	60.4	> 100	> 100	> 100
COc1ccc(N2C(=O)CC(=O)N(NC(=O)C(C)Oc3ccccc3C)C2=S)cc1 (stereo not drawn)	> 100	> 100	> 100	> 100	> 100	> 100	> 100	> 100	> 100	> 100
C/C(C[n+]1ccccc1)=N\N=C(N)N	> 100	> 100	> 100	> 100	> 100	> 100	> 100	> 100	> 100	> 100
CN1CCOC1c1ccccc1O (stereo not drawn)	> 100	> 100	> 100	> 100	> 100	> 100	> 100	> 100	> 100	> 100
CC(C)c1cc2c(c(O)c1O)[C@@]1(C(=O)O)CCCC(C)(C)[C@@H]1CC2	66.7	–	30.1	46.9	20.8	30.8	53	> 100	> 100	–
Cc1nc(C)c(C(=O)NNC(=O)C[N+](C)(C)C)cc1C(=O)NNC(=O)C[N+](C)(C)C	> 100	> 100	> 100	> 100	> 100	> 100	> 100	> 100	> 100	> 100
COc1ccc(C2OC(c3ccncc3)=NN2C)cc1F (stereo not drawn)	> 100	> 100	> 100	> 100	> 100	> 100	> 100	> 100	> 100	> 100
N[C@@H](Cc1ccccc1)C(=O)N1CCC[C@@H]1P(=O)(Oc1ccccc1)Oc1ccccc1	> 100	> 100	> 100	> 100	> 100	> 100	> 100	> 100	> 100	> 100
CC(C)(C)[Si](C)(C)OCC1OC(n2ccc(=O)[nH]c2=O)C(O[Si](C)(C)C(C)(C)C)/C1=C/C#N (stereo not drawn)	11.9	> 100	> 100	> 100	> 68.8	> 100	> 51.2	> 100	> 100	> 100
